Laboratory results reported in US20250034182A1, “PHOSPHOLIPID COMPOUNDS AND METHODS OF MAKING AND USING THE SAME” (priority 2021, published 2025).

What was measured:
Assay type in all cases: cell-based
[1] = in vitro; details: human
Procedure: H1-HeLa cell viability was measured using the CellTiter-Glo® Luminescent Cell Viability Assay kit (Promega, Cat #G7573) according to the manufacturer's protocol. H1-HeLa cells were maintained in Dulbecco's Modified Eagle's Medium with high glucose (Gibco, Cat #: 11995073) supplemented with 10% FBS (HyClone, Cat #: SH303396.03), 100 units/mL penicillin and 100 µg/mL streptomycin (Gibco, Cat #: 15140122). One day before compound treatment, H1-HeLa cells were seeded at […] into 96-well plates (Corning, Cat #3904) in Opti-MEM (Gibco, Cat #: 31985070) supplemented with 2% FBS, and were incubated at 37° C. in a 100% humid atmosphere containing 5% (v/v) CO2. After overnight incubation, the cells were treated with three-fold serial dilutions of the compound. At 96 hours post treatment, CellTiter-Glo reagents were added into each well and luminescence signals were recorded by an EnVision plate reader. The relative cell viability was calculated by normalizing the absorbance of the compound-treated groups to that of the DMSO-treated groups (set as 100% viability) and 10 μM puromycin treated groups (set as 0% viability). The CC50 (compound concentration for reducing 50% of cell viability) was calculated using a nonlinear regression model (four parameters).

[2] = in vitro; details: human; remark: listed apart in the source
Procedure: Huh7 hepatoblastoma cells were seeded onto 96-well plates and incubated at 37° C. with 5% CO2 overnight. The plates were seeded at a cell concentration that will yield >70% confluent monolayers in each well after overnight incubation. Eight 3-fold serial dilutions of compounds were diluted in test media (MEM supplemented with 2% FBS and 50 μg/mL gentamicin). The highest test compound concentration was 50 μg/mL. 100 μL of each concentration was added to 5 test wells on the 96-well plate. Of these 5 test wells, 3 wells of each dilution were infected with dengue virus type 2, diluted in test media (approximately 2000 CCID50 per well for an MOI of 0.07). Test medium (100 μL) with no virus was added to 2 wells to represent the uninfected cytotoxicity controls. Six additional infected wells received 100 μL media alone as untreated virus controls. Further, 100 μL of media alone was added to 6 uninfected wells to serve as uninfected, untreated controls. Cultures were incubated at 37° C.+5% CO2 until >80% CPE is observed. After cytopathic effect (CPE) is observed microscopically, 0.011% neutral red dye was added for approximately 2 hours. The neutral red dye was removed and wells were rinsed once with PBS to remove residual, unincorporated dye. A 50:50 Sorensen citrate buffer/ethanol solution was added and incubated at room temperature for >30 minutes with agitation, followed by measurement of neutral red dye using a spectrophotometer at 540 nm. The resulting optical density measurement was converted to percent signal of the infected, untreated cell control normalizing to virus controls. EC50 and CC50 values were determined by linear regression analysis.

[3] = system: Respiratory syncytial virus recombinant with luciferase (RSV-Luc5) in HEp-2 cells; assay: HEp-2 RSV-Luc5 384-well assay (EC50 RSVFLUC Hep2-384, Example R); details: human respiratory syncytial virus, HEp-2, 72 h, read-out: RSV Hep-2 FLuc EC50 (nM) (per Ex. R)
From the text: HEp-2 cell line was purchased from ATCC (Manassas, VA Cat #CCL-23) and maintained in Dulbecco's […] (DMEM) (Corning, New York, NY, Cat #15-018CM) supplemented with 10% fetal bovine serum (FBS) (Hyclone, Logan, UT, Cat #SH30071-03) and 1× Penicillin-Streptornycin-L-Glutamine (Corning, New York, NY, Cat #30-009-CI). Cells were passaged 2 times per week to maintain sub-confluent densities and were used for experiments at passage 5-20. Respiratory syncytial virus recombinant with luciferase (RSV-Luc5) direct pelleted virus (≥1×107 TCID50/ml) was purchased from Microbiologics (Saint Cloud, MN). Viral replication was determined in HEp-2 cells in the following manner.
Compounds are prepared in 384-well polypropylene plates (Greiner, Monroe, NC, Cat #784201) with 8 compounds per plate in grouped replicates of 4 at 10 serially diluted concentrations (1:3).
HEp-2 cells were suspended in DMEM (supplemented with 10% FBS and 1×Penicillin-Streptonycin-L-Glutimine) and 60 μL of 4,000 cells per well were seeded into 384-well plates (Greiner, Monroe, NC, Cat #781080) using Biotek MultiFlo dispenser. After overnight incubation at 37° C. and 5% CO2, 0.4 uL of three-fold serial dilutions of compound was added to each well using a Biomek FX pipette station. RSV-Luc5 viruses were diluted in DMEM (supplemented with 10% FBS and 1× Penicillin-Streptonycin-L-Glutainie) at an MOI=0.5. Virus suspension was added to each 384-well compound plate at 20 uL per well using a Biotek MultiFlo dispenser. The assay plates were incubated for 3 days at 37° C. and 5% CO2. At the end of incubation, One-Glo reagent (Promega, Madison, WI, Cat #E6120) was prepared. The assay plate and the reagent were equilibrated to room temperature for 30 minutes. 50 uL per well of medium was removed from assay plate and 40 uL per well of One-Glo reagent was added to each plate by Biomek FX. The plates were sat at room temp for 15 minutes. Viral replication was then assessed by measuring luminescence signal using and Envision plate reader. Remdesivir was used as positive control and DMSO was used as negative control. Values were normalized to the positive and negative controls (as 0% and 100% replication, respectively) and data was fitted using non-linear regression analysis by Gilead's dose response tool. The EC50 value for each compound was then determined as the concentration reducing the viral replication by 50%.

Structure (SMILES)	CC50 at 96 h [1] [µM]	CC50 [2] [µM]	EC50 [3] [nM]
CCCCCCCCCCCCCCCCCCC[C@H](COP(=O)(O)OC[C@@]1(C#N)O[C@@H](c2ccc3c(N)ncnn23)[C@H](O)[C@@H]1O)Oc1ccc(C#N)c(OC(C)C)c1 [Compound 38, ((2R,3S,4R,5S)-5-(4-aminopyrrolo[2,1-f][1,2,4]triazin-7-yl)-2-cyano-3,4-dihydroxytetrahydrofuran-2-yl)methyl ((R)-2-(4-cyano-3-isopropoxyphenoxy)henicosyl) hydrogen phosphate]	6.19	5.8	–
CCCCCCCCCCCCCCCCCCC[C@H](COP(=O)(O)OC[C@@]1(C#N)O[C@@H](c2ccc3c(N)ncnn23)[C@H](O)[C@@H]1O)OCc1ccc(-n2cncn2)c(C#N)c1 [Compound 30, ((2R,3S,4R)-5-(4-aminopyrrolo[2,1-f][1,2,4]triazin-7-yl)-2-cyano-3,4-dihydroxytetrahydrofuran-2-yl)methyl ((R)-2-((3-cyano-4-(1H-1,2,4-triazol-1-yl)benzyl)oxy)henicosyl) hydrogen phosphate]	4.96	5.9	–
CCCCCCCCCCCCCCOC[C@H](COP(=O)(O)OC[C@@]1(C#N)O[C@@H](c2ccc3c(N)ncnn23)[C@H](O)[C@@H]1O)OCc1ccc(C#N)cc1F [Compound 75, ((2R,3S,4R,5S)-5-(4-aminopyrrolo[2,1-f][1,2,4]triazin-7-yl)-2-cyano-3,4-dihydroxytetrahydrofuran-2-yl)methyl ((R)-2-((4-cyano-2-fluorobenzyl)oxy)-3-(tetradecyloxy)propyl) hydrogen phosphate]	–	> 50	385
CCCCCCCCCCCCCCCCCCCC[C@H](COP(=O)(O)OC[C@@]1(C#N)O[C@@H](c2ccc3c(N)ncnn23)[C@H](O)[C@@H]1O)Oc1cccc(C#N)c1 [Compound 51, ((2R,3S,4R,5S)-5-(4-aminopyrrolo[2,1-f][1,2,4]triazin-7-yl)-2-cyano-3,4-dihydroxytetrahydrofuran-2-yl)methyl ((R)-2-(3-cyanophenoxy)docosyl) hydrogen phosphate]	–	21	421
CCCCCCCCCCCCCCCCCCOC[C@H](COP(=O)(O)OC[C@@]1(C#N)O[C@@H](c2ccc3c(N)ncnn23)[C@H](O)[C@@H]1O)Oc1cccc(C#N)n1 [Compound 21, ((2R,3S,4R,5S)-5-(4-aminopyrrolo[2,1-f][1,2,4]triazin-7-yl)-2-cyano-3,4-dihydroxytetrahydrofuran-2-yl)methyl ((R)-2-((6-cyanopyridin-2-yl)oxy)-3-(octadecyloxy)propyl) hydrogen phosphate]	–	–	136
CCCCCCCCCCCCCCCCCCCC[C@H](COP(=O)(O)OC[C@@]1(C#N)O[C@@H](c2ccc3c(N)ncnn23)[C@H](O)[C@@H]1O)OCc1cc(F)cc(C#N)c1 [Compound 34, ((2R,3S,4R)-5-(4-aminopyrrolo[2,1-f][1,2,4]triazin-7-yl)-2-cyano-3,4-dihydroxytetrahydrofuran-2-yl)methyl ((R)-2-((3-cyano-5-fluorobenzyl)oxy)docosyl) hydrogen phosphate]	4.69	15	–
CCCCCCCCCCCCCCCCCCC[C@H](COP(=O)(O)OC[C@@]1(C#N)O[C@@H](c2ccc3c(N)ncnn23)[C@H](O)[C@@H]1O)OCc1ccc(C#N)c(OC(C)C)c1 [Compound 28, ((2R,3S,4R,5S)-5-(4-aminopyrrolo[2,1-f][1,2,4]triazin-7-yl)-2-cyano-3,4-dihydroxytetrahydrofuran-2-yl)methyl ((R)-2-((4-cyano-3-isopropoxybenzyl)oxy)henicosyl) hydrogen phosphate]	9.9	19	–
CCCCCCCCCCCCCCCCCC[C@H](COP(=O)(O)OC[C@@]1(C#N)O[C@@H](c2ccc3c(N)ncnn23)[C@H](O)[C@@H]1O)OCc1cc(Cl)cc(C#N)c1 [Compound 81, ((2R,3S,4R,5S)-5-(4-aminopyrrolo[2,1-f][1,2,4]triazin-7-yl)-2-cyano-3,4-dihydroxytetrahydrofuran-2-yl)methyl ((R)-2-((3-chloro-5-cyanobenzyl)oxy)icosyl) hydrogen phosphate]	4.52	–	–
CCCCCCCCCCCCCCCCCCOC[C@H](COP(=O)(O)OC[C@@]1(C#N)O[C@@H](c2ccc3c(N)ncnn23)[C@H](O)[C@@H]1O)Oc1ccc(C#N)c(OC(C)C)c1 [Compound 23, ((2R,3S,4R,5S)-5-(4-aminopyrrolo[2,1-f][1,2,4]triazin-7-yl)-2-cyano-3,4-dihydroxytetrahydrofuran-2-yl)methyl ((R)-2-(4-cyano-3-isopropoxyphenoxy)-3-(octadecyloxy)propyl) hydrogen phosphate]	10.8	26	–
CCCCCCCCCCCCCCCC[C@@H](COP(=O)(O)OC[C@@]1(C#N)O[C@@H](c2ccc3c(N)ncnn23)[C@H](O)[C@@H]1O)OCc1cc(F)cc(C#N)c1 [Compound 79, ((2R,3S,4R,5S)-5-(4-aminopyrrolo[2,1-f][1,2,4]triazin-7-yl)-2-cyano-3,4-dihydroxytetrahydrofuran-2-yl)methyl ((S)-2-((3-cyano-5-fluorobenzyl)oxy)octadecyl) hydrogen phosphate]	6.74	–	–
CCCCCCCCCCCCCCCCCCC[C@H](COP(=O)(O)OC[C@@]1(C#N)O[C@@H](c2ccc3c(N)ncnn23)[C@H](O)[C@@H]1O)OCc1cc(Cl)cc(C#N)c1 [Compound 82, ((2R,3S,4R,5S)-5-(4-aminopyrrolo[2,1-f][1,2,4]triazin-7-yl)-2-cyano-3,4-dihydroxytetrahydrofuran-2-yl)methyl ((R)-2-((3-chloro-5-cyanobenzyl)oxy)henicosyl) hydrogen phosphate]	4.03	–	–
CCCCCCCCCCCCCCCCCCOC[C@@H](COP(=O)(O)OC[C@@]1(C#N)O[C@@H](c2ccc3c(N)ncnn23)[C@H](O)[C@@H]1O)Oc1ccc(C#N)nc1 [Compound 72, ((2R,3S,4R,5S)-5-(4-aminopyrrolo[2,1-f][1,2,4]triazin-7-yl)-2-cyano-3,4-dihydroxytetrahydrofuran-2-yl)methyl ((S)-2-((6-cyanopyridin-3-yl)oxy)-3-(octadecyloxy)propyl) hydrogen phosphate]	5.1	17	–
CCCCCCCCCCCCCCCCCCOCC(COc1cc(F)cc(C#N)c1)COP(=O)(O)OC[C@@]1(C#N)O[C@@H](c2ccc3c(N)ncnn23)[C@H](O)[C@@H]1O (stereo partly drawn) [Compound 43, ((2R,3S,4R,5S)-5-(4-aminopyrrolo[2,1-f][1,2,4]triazin-7-yl)-2-cyano-3,4-dihydroxytetrahydrofuran-2-yl)methyl (3-(3-cyano-5-fluorophenoxy)-2-((octadecyloxy)methyl)propyl) hydrogen phosphate]	4	14	–
